Measurements reported in patent US9115145B2, “Tocotrienol derivatives and associated methods” (FIRST TECH INTERNATIONAL LIMITED, priority 2011, dated 2015).
Where two headings read alike, the source gives them in different places.

Legend:
[1] = tested on: MCF7 human breast cancer cell line; assay: MTT assay of MCF7 cells; type: cell-based; conditions: media containing 1% fetal bovine serum
Method: MDA-MB-231 and MCF7 cells were plated at a density of 8×10^3 cells/well and 10^4 cells/well in 96-well culture plates, respectively. The compounds were fed in serum free media containing 5% and 1% fetal bovine serum for MDA-MB-231 and MCF7 cells, respectively.

[2] = tested on: MCF 10A non-tumorigenic mammary epithelial cells; assay: MTT assay of MCF10A cells; type: cell-based, human
Method in brief: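 MCF 10A non-tumorigenic human mammary epithelial cells were seeded at 10×10^4 cells/well and treated with compounds in serum-free medium, final DMSO below 0.1%. Viability was read by MTT, and IC50 came from non-linear regression. Selectivity index = MCF 10A IC50 ÷ +SA cell line IC50.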

[3] = tested on: MDA-MB-231 human breast cancer cells; assay: Wound-healing assay (cell migration); type: cell-based; conditions: MDA-MB-231, wound-healing assay, dose response; read-out: IC50 antimigratory activity
Method in brief: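 Scratch wounds made in confluent (>95%) monolayers, then compounds added in fresh medium (5 μM in screening; concentration range in follow-up), DMSO as negative control, triplicate. After 24 h serum-starved at 37 °C, cells fixed and Diff-Quick stained. Migrated cells counted per 400× field (≥3 fields); IC50 from concentration range.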

## CC(C)=CCC/C(C)=C/CC/C(C)=C/CC[C@]1(C)CCc2cc(O)c(C)c(C)c2O1 [Compound 1, γ-tocotrienol, reference compound]
[1]
  IC50: 7.1 µM
[2]; MCF10A cells, Table II, non-linear regression, read-out: MCF10A (IC50)
  IC50: 4.4 µM
[2]; MCF 10A non-tumorigenic cells, Table I, read-out: IC50 MCF 10A
  IC50: 4.4 µM
[3]
  IC50: > 40 µM
